In patent US8796292B2, “Selective antibacterials for clostridium difficile infections” (GLSynthesis Inc., priority 2009, dated 2014):
Values after ≈ are worked out from the molar mass of the structure shown. Where two headings read alike, the source gives them in different places.

What was measured:
Assay in all cases: agar dilution MIC assay of anaerobic bacteria
L. casei = assay type: cell-based, Lactobacillus casei; settings: Lacticaseibacillus casei
Summary of the method: (§1)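 Growth inhibition is scored as absence of colony formation on agar containing serial drug dilutions, following CLSI anaerobe guidance. Plates receive 500-1000 CFU and incubate anaerobically at 35° C. for 48 hours.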

Ba. fragilis = assay type: cell-based; settings: Bacteroides fragilis
Summary of the method: as §1

L. acidophilus = assay type: cell-based; settings: Lactobacillus acidophilus
Summary of the method: as §1

Bi. brevi = assay type: cell-based, Bifidobacterium brevi
Summary of the method: as §1

Bi. longum = assay type: cell-based, Bifidobacterium longum
Summary of the method: as §1

E. lentum = assay type: cell-based, Eubacterium lentum
Summary of the method: as §1

C. difficile = assay type: cell-based, Clostridium difficile; settings: Clostridioides difficile, read-out: MIC
Summary of the method: as §1

`Cc1ncc([N+](=O)[O-])n1CCO` [metronidazole, reference compound] was tested, and the MIC (L. casei; Micromyx Number 1722, Table 1) was over 16 µg/mL, the MIC (L. casei; Strain no. 1722 (ATCC strain), Table 3) was over 32 µg/mL and the MIC (Ba. fragilis; B. fragilis, Micromyx Number 0123 (ATCC strain), Table 2) was 0.5 µg/mL (≈ 2.92 µM). For the same compound, the MIC (Ba. fragilis; B. fragilis, Strain no. 0123 (ATCC strain), Gram-negative (control), Table 3) was 0.5 µg/mL (≈ 2.92 µM), the MIC (Ba. fragilis; Ba. fragilis, Micromyx Number 0123 (ATCC strain), Gram negative, Table 1) was 1 µg/mL (≈ 5.84 µM) and the MIC (L. acidophilus; Micromyx Number 0681, Table 1) was over 16 µg/mL. The MIC (L. acidophilus; Strain no. 0681, Table 3) was over 32 µg/mL, the MIC (Bi. brevi; Bifidobacterium breve, Bi. Breve, Strain no. 3967 (ATCC strain), Table 3) was 4 µg/mL (≈ 23.4 µM) and the MIC (Bi. brevi; Bifidobacterium, Bi. brevi, Micromyx Number 3967, Table 1) was over 16 µg/mL. For the same compound, the MIC (Bi. longum; Bi. Longum, Strain no. 3968 (ATCC strain), Table 3) was 4 µg/mL (≈ 23.4 µM), the MIC (Bi. longum; Bifidobacterium longum, Bi. longum, Micromyx Number 3968, Table 1, read-out: MIC) was 4 µg/mL (≈ 23.4 µM) and the MIC (E. lentum; Eggerthella lenta, E. lentum, Micromyx Number 1274, Table 1, read-out: MIC) was 0.5 µg/mL (≈ 2.92 µM). For the same compound, the MIC (E. lentum; Eu. Lentum, Strain no. 1274 (ATCC strain), Table 3) was 0.5 µg/mL (≈ 2.92 µM), the MIC (C. difficile; C. diff. Strain no. 18285, Table 4) was 2 µg/mL (≈ 11.7 µM) and the MIC (C. difficile; C. diff. Strain no. 19265, Table 4) was 0.5 µg/mL (≈ 2.92 µM). It also gave an MIC (C. difficile; C. diff. Strain no. 19273, Table 4) of 0.25 µg/mL (≈ 1.46 µM), an MIC (C. difficile; C. diff. Strain no. 19281, Table 4) of 0.5 µg/mL (≈ 2.92 µM) and an MIC (C. difficile; C. diff. Strain no. 19291, Table 4) of 0.5 µg/mL (≈ 2.92 µM). The MIC (C. difficile; C. diff. Strain no. 19369, Table 4) was 0.5 µg/mL (≈ 2.92 µM), the MIC (C. difficile; C. diff. Strain no. 19382, Table 4) was 0.5 µg/mL (≈ 2.92 µM) and the MIC (C. difficile; C. diff. Strain no. 19540, Table 4) was 4 µg/mL (≈ 23.4 µM). For the same compound, the MIC (C. difficile; C. diff. Strain no. 19580, Table 4) was 2 µg/mL (≈ 11.7 µM), the MIC (C. difficile; C. diff. Strain no. 19680, Table 4) was 4 µg/mL (≈ 23.4 µM) and the MIC (C. difficile; C. diff. Strain no. 19681, Table 4) was 1 µg/mL (≈ 5.84 µM). For the same compound, the MIC (C. difficile; C. diff. Strain no. 19683, Table 4) was 2 µg/mL (≈ 11.7 µM), the MIC (C. difficile; C. diff. Strain no. 19687, Table 4) was 4 µg/mL (≈ 23.4 µM) and the MIC (C. difficile; C. diff. Strain no. 20066, Table 4) was 4 µg/mL (≈ 23.4 µM). The MIC (C. difficile; C. diff. Strain no. 20152, Table 4) was 1 µg/mL (≈ 5.84 µM), the MIC (C. difficile; C. diff. Strain no. 20307, Table 4) was 0.5 µg/mL (≈ 2.92 µM) and the MIC (C. difficile; C. diff. Strain no. 20494, Table 4) was 1 µg/mL (≈ 5.84 µM). It also gave an MIC (C. difficile; C. diff. Strain no. 20680, Table 4) of 4 µg/mL (≈ 23.4 µM), an MIC (C. difficile; C. diff. Strain no. 20934, Table 4) of 1 µg/mL (≈ 5.84 µM) and an MIC (C. difficile; C. diff. Strain no. 21099, Table 4) of 2 µg/mL (≈ 11.7 µM). It also gave an MIC (C. difficile; C. diff., Micromyx Number 3579, Table 2) of 0.5 µg/mL (≈ 2.92 µM), an MIC (C. difficile; C. diff., Micromyx Number 3580, Table 2) of 0.5 µg/mL (≈ 2.92 µM) and an MIC (C. difficile; C. diff., Micromyx Number 3581, Table 2) of 0.5 µg/mL (≈ 2.92 µM). For the same compound, the MIC (C. difficile; C. diff., Micromyx Number 3582 (ATCC strain), Table 2) was 0.5 µg/mL (≈ 2.92 µM), the MIC (C. difficile; C. diff., Strain no. 3580, Table 3) was 1 µg/mL (≈ 5.84 µM) and the MIC (C. difficile; C. diff., Strain no. 3581, Table 3) was 1 µg/mL (≈ 5.84 µM). It also gave an MIC (C. difficile; C. diff., Strain no. 3582, Table 3) of 0.5 µg/mL (≈ 2.92 µM), an MIC (C. difficile; C. diff., Strain no. 3584, Table 3) of 0.5 µg/mL (≈ 2.92 µM) and an MIC (C. difficile; C. diff., Strain no. 3585, Table 3) of 1 µg/mL (≈ 5.84 µM). It also gave an MIC (C. difficile; C. diff., Strain no. 3586, Table 3) of 0.12 µg/mL (≈ 0.701 µM), an MIC (C. difficile; C. diff., Strain no. 3587, Table 3) of 1 µg/mL (≈ 5.84 µM) and an MIC (C. difficile; C. diff., Strain no. 3588, Table 3) of 0.5 µg/mL (≈ 2.92 µM). It also gave an MIC (C. difficile; C. diff., Strain no. 3589, Table 3) of 2 µg/mL (≈ 11.7 µM), an MIC (C. difficile; C. diff., Strain no. 4381 (ATCC strain), Table 3) of 0.5 µg/mL (≈ 2.92 µM) and an MIC (C. difficile; C. difficile, Micromyx Number 1209, Table 1) of 0.5 µg/mL (≈ 2.92 µM). For the same compound, the MIC (C. difficile; C. difficile, Micromyx Number 3579, Table 1) was 0.25 µg/mL (≈ 1.46 µM), the MIC (C. difficile; C. difficile, Micromyx Number 3580, Table 1) was 0.5 µg/mL (≈ 2.92 µM) and the MIC (C. difficile; C. difficile, Micromyx Number 3581, Table 1) was 1 µg/mL (≈ 5.84 µM). The MIC (C. difficile; C. difficile, Micromyx Number 3582, Table 1) was 0.25 µg/mL (≈ 1.46 µM), the MIC (C. difficile; C. difficile, Micromyx Number 3584, Table 1) was 0.5 µg/mL (≈ 2.92 µM) and the MIC (C. difficile; C. difficile, Micromyx Number 3585, Table 1) was 0.5 µg/mL (≈ 2.92 µM). It also gave an MIC (C. difficile; C. difficile, Micromyx Number 3586, Table 1) of 0.5 µg/mL (≈ 2.92 µM), an MIC (C. difficile; C. difficile, Micromyx Number 3587, Table 1) of 1 µg/mL (≈ 5.84 µM) and an MIC (C. difficile; C. difficile, Micromyx Number 3588, Table 1) of 0.5 µg/mL (≈ 2.92 µM). It also gave an MIC (C. difficile; C. difficile, Micromyx Number 3589, Table 1) of 1 µg/mL (≈ 5.84 µM), an MIC (C. difficile; C. difficile, Micromyx Number 3590, Table 1) of 0.5 µg/mL (≈ 2.92 µM) and an MIC (C. difficile; C. difficile, Micromyx Number 3591, Table 1) of 0.5 µg/mL (≈ 2.92 µM). It also gave an MIC (C. difficile; C. difficile, Micromyx Number 3593, Table 1) of 0.5 µg/mL (≈ 2.92 µM), an MIC (C. difficile; C. difficile, Micromyx Number 3594, Table 1) of 1 µg/mL (≈ 5.84 µM) and an MIC (C. difficile; C. difficile, Micromyx Number 3595, Table 1) of 1 µg/mL (≈ 5.84 µM). For the same compound, the MIC (C. difficile; C. difficile, Micromyx Number 4381 (ATCC strain), Table 1) was 0.5 µg/mL (≈ 2.92 µM).
